Experimental data reported in publication PMC5641551, “Chemical Proteomics for Target Discovery of Head-to-Tail Cyclized Mini-Proteins” (Frontiers in Chemistry, 2017).
No end group written: not given here.

Experiments:
[1] = tested on: Foxo3a transcriptional activity in HEK293 cells co-transfected with 14-3-3β; experiment: Foxo3a luciferase reporter gene assay; assay type: cell-based, human
Method: Jurkat cells were cultured in RPMI medium containing phenol red supplemented with 10% (v/v) heat deactivated fetal calf serum and 100 U/mL penicillin/streptomycin at 37°C in humidified atmosphere of 5% CO2. HEK293 cells were cultured in Dulbecco's modified eagle high glucose medium supplied with 10% fetal calf serum and 100 U per mL penicillin/streptomycin. Cell transfection was carried out by Jetprime® according to the manufacturer's recommendation (Polyplus, Illkirch, France).
Forkhead box protein 3a induced transcriptional activity was measured on transiently transfected HEK293 cells (5 × 10^4). The reporter plasmid encoding luciferase under the control of a promotor containing forkhead responsive elements and the human p-Foxo3a-HA plasmid were gifts of Michael Greenberg provided by the Addgene consortium (#1787 and #1789; Brunet et al., [1999]). The plasmids encoding the mouse p-14-3-3 beta-GST protein and the functional forkhead transcription factor were used in a 1.5-fold amount compared to the reporter construct. The transfection was completed after 6 h and the cells could recover for 4 h in growth medium. The cells were serum starved using 1% (v/v) fetal bovine serum in phenol red free DMEM medium supplemented with antibiotics overnight. After 4 h peptide and 24 h of fusicoccin-A treatment the luciferase assay was developed using luciferase development kit from Promega E151 (Wisconsin, United States) and the luminescence was measured on a synergy H4 plate reader (Biotek). Control compounds were the PI3K inhibitors wortmannin and LY294002 (both Sigma Aldrich). The recorded data were normalized to the non-treated control sample. Significance and IC50-values were calculated from at least two biological replicates using GraphPad Prism. Data analysis was performed by non-linear regression using a four parameter Hill equation.
If not stated in detail for the respective single experiment the statistical tests were performed using GraphPad Prism 5.04 (GraphPad, La Jolla, CA) using one-way ANOVA with Bonferonni or Dunnett's Post-hoc test. The number of technical and biological repeats was justified by analysis of error and reproducibility of results. Significance threshold P < 0.05 was applied to all experiments. For the data shown in Figure 3 three individuals for the in vivo experiments were used and each data point was performed in three technical replicates. The pull down experiments shown in Figures 4A,B were performed a single time and the data represent two technical repeats. Gel lanes were loaded with single (1x) or doubled (2x) amount of pull down proteins for better visibility. The data illustrated in Figures 4C,D were performed in two independent experiments. Silver stained gel lanes were evaluated by loading various amounts, and then the amount with optimized staining contrast was loaded and used for in-gel protein digestion. The pull down experiments shown in Figures 4E,F were performed a single time. The Western Blots and the pull down experiment shown in Figure 5 represent experiments in three and two independent experiments, respectively. Experiments in a well-based format (Figure 6) were performed with three technical and two biological replicates. All data illustrated in this manuscript show the mean ± standard deviation (SD) unless stated otherwise. The MS based protein identifications were performed in two technical analyses for each sample.
Figure 6 Foxo3a luciferase reporter assay. The modulation of the Akt/PI3K/Foxo3a pathway by the cyclotide [T20K]kB1 binding to 14-3-3 proteins was investigated. HEK293 cells were transiently transfected with Foxo3a-Luc plasmid encoding luciferase under a promotor with Foxo response elements, Foxo3a and 14-3-3β. For control the reporter plasmid (basal value) was also co-transfected with the single functional effector proteins 14-3-3β or Foxo3a. Cells were treated under starving conditions with peptide or fusicoccin-A (FC-A) for 4 h or 24 h, respectively. […]

[2] = tested on: IL-2 in T-lymphocytes; conditions: reference not given; cited from earlier work
Description: 14-3-3s are ubiquitous adaptor proteins that are involved in cell signaling, cell cycle progression and apoptosis as well as protein-protein interaction and cellular transport (Aghazadeh and Papadopoulos, [2016]). The 14-3-3 family is often described as a chimera, since knockout of single isoforms may remain without or with minor phenotypic changes due to functional rescue through the recruitment of other family members. […] Many tumor suppressors or oncogenes are regulated by 14-3- ...

With “CGETCVGGTCNTPGCKCSWPVCTRNGLPV (also: bicyclic or more (positions not given here)) [[T20K]kB1, synthetic cyclotide drug candidate, Thr20 to Lys mutant of kalata B1]” as the sequence, how does the “Foxo3a transcriptional activity, effect in words” value ([1]; HEK293, luciferase reporter, PI3K inhibitors as controls, peptide 4 h) read?
Its value is “reduced the transcriptional activity of Foxo3a in a concentration-dependent manner”.

And the IC50 ([1]; HEK293 transfected with Foxo3a-Luc, Foxo3a and 14-3-3β, peptide treatment 4 h, IC50 ± SD, two independent experiments, four parameter Hill fit, read-out: IC50, reduction of Foxo3a transcriptional activity (luciferase))?
The IC50 was 5.27 ± 0.25 µM.

And the “effect on 14-3-3/Foxo3a protein complex (suggested)” value ([1]; inferred from decreased Foxo3a transcriptional activity in reporter assay)?
The value was “exerts a stabilizing effect on the 14-3-3/Foxo3a protein complex”.

What about the “regulatory cytokines such as IL-2 in T-lymphocytes of treated animals” value [2] of the same sequence?
Its value is “significantly downregulated”.
